Data set [1] has as its target T1, Muscarinic acetylcholine receptor M1 (Homo sapiens, UniProt P11229).
T1 sequence (P11229 whole entry): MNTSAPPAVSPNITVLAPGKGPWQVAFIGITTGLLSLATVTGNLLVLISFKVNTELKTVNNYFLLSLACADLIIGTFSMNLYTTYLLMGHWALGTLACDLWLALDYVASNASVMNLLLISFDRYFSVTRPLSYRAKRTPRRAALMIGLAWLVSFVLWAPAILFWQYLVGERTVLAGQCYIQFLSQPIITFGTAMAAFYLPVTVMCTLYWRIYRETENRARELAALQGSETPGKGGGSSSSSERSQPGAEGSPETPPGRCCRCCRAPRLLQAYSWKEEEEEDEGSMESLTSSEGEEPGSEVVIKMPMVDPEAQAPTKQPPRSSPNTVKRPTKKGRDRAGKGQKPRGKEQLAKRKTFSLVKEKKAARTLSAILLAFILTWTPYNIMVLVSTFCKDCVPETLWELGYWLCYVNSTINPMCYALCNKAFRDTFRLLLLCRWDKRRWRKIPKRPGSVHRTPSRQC
Briefly: Binding affinity against human Muscarinic acetylcholine receptor M1 in transfected CHO cells. The data set is classed as cell-based.

For data set [2], the target named is Muscarinic acetylcholine receptor M3 (Homo sapiens, UniProt P20309). Briefly: Binding affinity against human muscarinic acetylcholine receptor M3 in transfected CHO cells. The format is cell-based.
Sequence of Muscarinic acetylcholine receptor M3 (P20309 whole entry): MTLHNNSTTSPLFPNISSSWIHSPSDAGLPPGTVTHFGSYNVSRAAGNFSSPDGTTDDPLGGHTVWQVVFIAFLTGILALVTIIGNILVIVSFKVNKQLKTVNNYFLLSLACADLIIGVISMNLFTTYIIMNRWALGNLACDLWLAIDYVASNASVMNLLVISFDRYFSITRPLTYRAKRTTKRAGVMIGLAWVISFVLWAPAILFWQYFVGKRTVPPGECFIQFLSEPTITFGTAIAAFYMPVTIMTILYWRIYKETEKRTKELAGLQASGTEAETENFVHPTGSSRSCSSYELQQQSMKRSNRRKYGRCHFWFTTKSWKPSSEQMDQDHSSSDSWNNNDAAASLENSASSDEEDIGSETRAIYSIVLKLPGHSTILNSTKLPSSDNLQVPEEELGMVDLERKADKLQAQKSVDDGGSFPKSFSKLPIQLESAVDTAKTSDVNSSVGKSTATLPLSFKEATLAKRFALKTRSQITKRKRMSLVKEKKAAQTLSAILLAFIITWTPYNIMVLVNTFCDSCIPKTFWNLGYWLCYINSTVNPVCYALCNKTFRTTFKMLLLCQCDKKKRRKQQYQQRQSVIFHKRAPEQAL
Data set [3] has as its target T2, Muscarinic acetylcholine receptor M2 (Homo sapiens, UniProt P08172).
T2 sequence (P08172 whole entry): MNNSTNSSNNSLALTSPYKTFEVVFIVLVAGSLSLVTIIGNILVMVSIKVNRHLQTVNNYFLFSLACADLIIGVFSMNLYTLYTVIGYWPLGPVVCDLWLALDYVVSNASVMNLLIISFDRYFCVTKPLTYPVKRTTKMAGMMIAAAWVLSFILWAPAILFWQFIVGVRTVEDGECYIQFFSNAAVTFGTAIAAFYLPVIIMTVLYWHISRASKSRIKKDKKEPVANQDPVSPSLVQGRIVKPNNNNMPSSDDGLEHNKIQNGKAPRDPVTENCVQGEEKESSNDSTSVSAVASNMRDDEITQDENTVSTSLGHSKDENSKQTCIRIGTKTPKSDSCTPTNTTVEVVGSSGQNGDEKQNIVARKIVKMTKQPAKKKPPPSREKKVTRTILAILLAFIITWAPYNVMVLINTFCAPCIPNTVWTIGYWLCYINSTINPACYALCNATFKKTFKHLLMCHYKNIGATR
As to the kind of experiment: Binding affinity against human muscarinic acetylcholine receptor M2 in transfected CHO cells. The format is cell-based.

Data set [4] in a line: In vitro metabolic stability determined after 30 min of incubation in rat hepatic microsomes. The note with it: liver microsomes, read-out: Metabolic stability. The data set is classed as ADME. For orientation: Liver microsomes are vesicles of endoplasmic reticulum, rich in cytochrome P450 enzymes.
The nature of data set [5]: In vitro metabolic stability determined after 30 min of incubation in dog hepatic microsomes. The data set is classed as ADME, Canis lupus familiaris. The note with it: liver microsomes, read-out: Metabolic stability.
Data set [6] can be described thus: In vitro metabolic stability determined after 30 min of incubation in human hepatic microsomes. The data set is classed as ADME. To be noted: liver microsomes, read-out: Metabolic stability.
Data set [7] is described as follows: Vdss was determined after iv 0.1 mg/kg administration in dog. To be noted: in vivo, read-out: Vdss. The format is ADME, organism-based, Canis lupus familiaris. On the set-up: dose 0.1 mg/kg, route intravenous.
The nature of data set [8]: Area under curve was determined after 0.3 mg/kg po administration in dog. The data set is classed as ADME, organism-based, Canis lupus familiaris. The note with it: in vivo. On the set-up: dose 0.3 mg/kg, route oral.
Data set [9] is described as follows: Area under curve was determined after 0.1 mg/kg iv administration in dog. The format is ADME, organism-based, Canis lupus familiaris. On the set-up: dose 0.1 mg/kg, route intravenous. The note with it: in vivo.
Data set [10] is described as follows: Half-life of the compound after 0.3 mg/kg po administration in dog. The format is ADME, organism-based, Canis lupus familiaris. On the set-up: dose 0.3 mg/kg, route oral. To be noted: in vivo.
Data set [11] can be described thus: Cmax after 0.3 mg/kg po administration in dog. The data set is classed as ADME, organism-based, Canis lupus familiaris. On the set-up: dose 0.3 mg/kg, route oral. To be noted: in vivo.
A short description of data set [12]: Oral bioavailability after 0.3 mg/kg po administration in dog. The note with it: in vivo. The format is ADME, organism-based, Canis lupus familiaris.
Data set [13] is described as follows: Total clearance was determined after 0.1 mg/kg iv administration in dog. The data set is classed as ADME, organism-based, Canis lupus familiaris. On the set-up: dose 0.1 mg/kg, route intravenous. To be noted: in vivo, read-out: CLtotal.

SMILES strings stand for the structures.

A word on the Ki: it is the dissociation constant of the complex between target and ligand, obtained from inhibition or displacement. As for `NCCN1CCN(C(=O)[C@](O)(c2ccccc2)[C@@H]2CCC(F)(F)C2)CC1`, the values for the Ki in [1], in data set [2] and in [3] were 11 nM, 9.6 nM and 820 nM, respectively.
In the case of `NCC1CCN(C(=O)[C@](O)(c2ccccc2)C2CCCC2)CC1`, the values for the Ki in data set [1], in data set [2] and in [3] were 1.8 nM, 1.7 nM and 28 nM, respectively. For the same compound, the remaining at 0.5 h in data set [4] was 72%; in [5], 100%; in [6], 91%.
Take `CC1(N)CCN(C(=O)[C@](O)(c2ccccc2)[C@@H]2CCC(F)(F)C2)CC1`: the Ki in [1] was found to be 4.7 nM; in [2], 8.3 nM; in data set [3], 640 nM.
Consider `O=C(NC1CCNCC1)[C@](O)(c1ccccc1)[C@@H]1CCC(F)(F)C1`, for which the Ki in [1] amounted to 310 nM; in data set [2], 320 nM; in data set [3], 15000 nM.
Turning to `CC(C)(N)CC1CCN(C(=O)[C@](O)(c2ccccc2)[C@@H]2CCC(F)(F)C2)CC1`, the results for the Ki in data set [1], in [2] and in data set [3] were 37 nM, 26 nM and 1000 nM, respectively.
Take `NC1CCN(C(=O)[C@](O)(c2ccccc2)[C@@H]2CCC(F)(F)C2)CC1`: the Ki is 3 nM in data set [1], 5.1 nM in [2] and 240 nM in [3]. Further, the remaining at 0.5 h in data set [4] turned out to be 100%; in data set [5] it was 88%; in data set [6] it was 86%.
As for `NCC=C1CCN(C(=O)[C@](O)(c2ccccc2)[C@@H]2CCC(F)(F)C2)CC1`, the results for the Ki in data set [1], in data set [2] and in data set [3] were 1.3 nM, 1.2 nM and 55 nM, respectively.
Consider `NCC1CCN(C(=O)[C@](O)(c2ccccc2)[C@@H]2CCC(F)(F)C2)C1` (stereo not given in full), for which the Ki was 2.1 nM in [1], 2.9 nM in data set [2] and 130 nM in data set [3].
In the case of `NCc1ccc(NC(=O)[C@](O)(c2ccccc2)[C@@H]2CCC(F)(F)C2)cc1`, the Ki in data set [1] is 740 nM; in data set [2] it was 650 nM; in data set [3] it was 5300 nM.
Turning to `NCC(=O)N1CCN(C(=O)[C@](O)(c2ccccc2)[C@@H]2CCC(F)(F)C2)CC1`, the Ki in data set [1] worked out at 21 nM; in data set [2] it was 16 nM; in [3], 300 nM.
For the compound `NCCCCC1CCN(C(=O)[C@](O)(c2ccccc2)[C@@H]2CCC(F)(F)C2)CC1`, the Ki in data set [1] stood at 140 nM; in [2], 76 nM; in data set [3], 4200 nM.
Take `CC1(CCN)CCN(C(=O)[C@](O)(c2ccccc2)[C@@H]2CCC(F)(F)C2)CC1`: the Ki in data set [1] came to 1.5 nM; in [2] it was 3.3 nM; in data set [3], 210 nM.
In the case of `CN(C)CCC1CCN(C(=O)[C@](O)(c2ccccc2)[C@@H]2CCC(F)(F)C2)CC1`, the Ki in data set [1] came out at 760 nM; in data set [2] it was 930 nM; in [3], 15000 nM.
In the case of `NCCC1CCN(C(=O)[C@](O)(c2ccccc2)C2CCCC2)CC1`, the Ki in [1] came to 2.1 nM; in data set [2], 1.1 nM; in data set [3] it was 41 nM. For the same compound, the figures for the remaining at 0.5 h in data set [4], in data set [5] and in data set [6] were 77%, 84% and 86%, respectively.
In the case of `NCc1cccc(NC(=O)[C@](O)(c2ccccc2)[C@@H]2CCC(F)(F)C2)c1`, the inhibition constant (Ki) turned out to be 210 nM in data set [1], 93 nM in data set [2] and 2900 nM in data set [3].
What is called AUC is concentration integrated over time. A high value points to high exposure. Usually half-life stands for the time needed for the level to fall by half in the phase considered. A higher half-life goes with slow decline. As a reminder, the Cmax is the highest concentration seen after dosing. What is called bioavailability is the share of a dose that reaches the circulation, judged against a reference dose that is usually intravenous. With `NCCC1CCN(C(=O)[C@](O)(c2ccccc2)[C@@H]2CCC(F)(F)C2)CC1`, in data set [1], affinity was put at a Ki of 6.6 nM. For the same compound, in data set [7], the Vd turned out to be 9.4 L/kg. Also, the remaining at 0.5 h was found to be 100% in [4], 100% in data set [5] and 82% in data set [6]. Also, the results for the AUC in data set [8] and in data set [9] were 440 ng·h/mL and 150 ng·h/mL, respectively. In addition, in [10], the half-life was 6.9 h. The compound also returned a Cmax in [11] of 43 ng/mL. Also, the bioavailability in data set [12] came out at 98%. Moreover, the clearance in [13] stood at 13 mL/min/kg.
On to `O=C(N1CCNCC1)[C@](O)(c1ccccc1)[C@@H]1CCC(F)(F)C1`, for which the Ki in data set [1] is 30 nM; in data set [2] it was 50 nM; in [3], 1200 nM.
Take `O=C(N1CCC(CCN2CCCCC2)CC1)[C@](O)(c1ccccc1)[C@@H]1CCC(F)(F)C1`: the Ki in [1] was 1900 nM; in data set [2], 2400 nM; in [3], 36000 nM.
Consider `O=C(NCCC1CCNCC1)[C@](O)(c1ccccc1)[C@@H]1CCC(F)(F)C1`, for which the Ki in [1] turned out to be 140 nM; in data set [2], 89 nM; in data set [3] it was 3900 nM.
In the case of `CCC1(CCN)CCN(C(=O)[C@](O)(c2ccccc2)[C@@H]2CCC(F)(F)C2)CC1`, the Ki in data set [1] stood at 1 nM; in [2], 7 nM; in data set [3], 300 nM.
As for `NCCCC1CCN(C(=O)[C@](O)(c2ccccc2)[C@@H]2CCC(F)(F)C2)CC1`, the figures for the Ki in data set [1], in data set [2] and in data set [3] were 92 nM, 47 nM and 2800 nM, respectively.
Take `CNCCC1CCN(C(=O)[C@](O)(c2ccccc2)[C@@H]2CCC(F)(F)C2)CC1`: the Ki in [1] is 140 nM; in data set [2], 120 nM; in data set [3], 5400 nM.
For `O=C(NCC1CCNCC1)[C@](O)(c1ccccc1)[C@@H]1CCC(F)(F)C1`, the Ki in data set [1] worked out at 23 nM; in data set [2] it was 17 nM; in data set [3], 2200 nM.
With `NCC1CCN(C(=O)[C@](O)(c2ccccc2)[C@@H]2CCC(F)(F)C2)CC1`, the Ki turned out to be 11 nM in [1], 11 nM in data set [2] and 760 nM in data set [3]. Moreover, the remaining at 0.5 h amounted to 98% in [4], 100% in [5] and 100% in [6].
As to `NCC1CCC(NC(=O)[C@](O)(c2ccccc2)[C@@H]2CCC(F)(F)C2)CC1` (stereo not given in full), the Ki was 55 nM in data set [1], 100 nM in [2] and 6800 nM in [3].
On to `O=C(N1CCCNCC1)[C@](O)(c1ccccc1)[C@@H]1CCC(F)(F)C1`, for which the Ki was found to be 14 nM in data set [1], 17 nM in data set [2] and 1100 nM in data set [3].
As for `NC1CCN(C(=O)[C@](O)(c2ccccc2)C2CCCC2)CC1`, the Ki in data set [1] came out at 0.98 nM; in data set [2], 1.4 nM; in [3], 11 nM. The remaining at 0.5 h in [4] came to 40%; in [5] it was 89%; in data set [6], 92%.
In the case of `O=C(Nc1ccc2c(c1)CNC2)[C@](O)(c1ccccc1)[C@@H]1CCC(F)(F)C1`, the values for the Ki in data set [1], in [2] and in data set [3] were 630 nM, 290 nM and 15000 nM, respectively.
As to `Nc1cccc(CN2CCC(NC(=O)[C@](O)(c3ccccc3)[C@@H]3CCC(F)(F)C3)CC2)n1`, the remaining at 0.5 h was 46% in data set [4], 84% in data set [5] and 80% in [6].

The record behind these values is ChEMBL document CHEMBL1136082, “Muscarinic M(3) receptor antagonists with (2R)-2-[(1R)-3,3-difluorocyclopentyl]-2-hydroxyphenylacetamide Structures. Part 2” (Bioorg Med Chem Lett, 2003).
